These results are taken from patent US11919939B2, “Beta-2-glycoprotein 1 derived peptide and use thereof for treating antiphospholipid syndrome” (Université de Genéve, priority 2017, dated 2024).

Test [1] relates to aPLA (patient-derived anti-β2GP1 antibodies). In words: ELISA epitope mapping assay (aPLA binding to coated wells). Details: species or system human. The following applies: wells coated with 10 μg/ml, aPLA from APS patients. The procedure: IgG fractions were isolated from patients plasma with Protein-G CL-4B Sepharose (GE Healthcare) as previously described.^16 To assay for endotoxin and lipopeptide contamination of the IgG fractions, we depleted IgG from the aPLA and IgG-ctl (control) fractions by one step of affinity adsorption to Protein G-Sepharose and tested the remaining supernatant for its capacity for monocyte activation, as previously described^17. […] Each experiment was performed with at least 2 different preparations of IgG.
MaxiSorp™ 96 well plates (Nunc) were coated with 10 μg/ml recombinant domains or peptides of β2GP1 prior to incubation with aPLA or control IgG. Secondary anti-human antibodies conjugated to IR800CW (Rockland) were used. Protein- or peptide-bound antibodies were detected and quantified by the Odyssey system (Li-Cor).

For test [2], the system named is human monocytes activated with aPLA. In words: TNF production in human monocytes activated with aPLA. As to conditions: domains or peptides at 10 μg/ml. It counts as cell-based. The procedure:
Monocytes were isolated from blood buffy coats of healthy volunteers as previously described.^14, 15 Monocyte purity routinely consisted of >90% CD14^+ cells, <1% CD3^+ cells, and <1% CD19^+ cells as assessed by flow cytometry. Cells were cultured in RPMI containing 10% Fetal Bovine Serum (FBS; Gibco BRL-Life Technologies). Each experiment was performed with at least three different preparations of monocytes.
The cells were treated with recombinant domains or peptides of β2GP1 at 10 μg/ml prior to incubation with aPLA or control IgG. Supernatants were collected for TNF quantification by ELISA (R&D System).

The test system of test [3] is CD4+ T cells from APS patients. In words: T cell proliferation assay (CFSE dilution) on PBMC of APS patients. It counts as cell-based, human. Further details: dose or concentration left out as unconfirmed. As to conditions: antigens for 10 days, flow cytometry. The procedure: Peripheral blood mononuclear cells (PBMC) were isolated by density gradient centrifugation over Lymphoprep™ (Axis-Shield PoC) according to the manufacturer's instructions. T cell proliferation was evaluated by 5,6-carboxylfluorescein diacetate succinimidyl ester (CFSE) dilution assays (eBioscience). PBMC were stained with 0.1 μM CFSE (eBioscience), according to the manufacturer's instructions. Cells were cultured in the presence of antigens ([…]) for 10 days. T cell proliferation was assessed by flow cytometry evaluation of CFSE dilution. Proliferation was expressed as the cell division index (defined as the number of CFSE^low T cells cultured with antigen/number of CFSE^low T cells without antigen). In all cases, the culture medium consisted of X-VIVO 15 (Lonza, Walkersville, MD) supplemented with penicillin (100 U/ml) and streptomycin (0.1 mg/ml).
Single-cell suspensions stained with CFSE (eBioscience) were incubated with anti-CD32 (Biolegend) to prevent nonspecific antibody binding, then stained with antibodies against AF488-CD3, AF647-CD4, (BD Bioscience) major histocompatibility complex (MHC) class II tetramer (Benaroya Research Institute). Staining was assessed with ACCURI C6 flow cytometer (BD Biosciences).
For orientation: In flow cytometry, cells or beads pass a laser one at a time.

Entries after “also recorded” stand apart in the source; their conditions may differ.

Consider “F12A: alanine scanning mutant of p1 (MISPVLILFSSALCHVAIAG; listed as Homo sapiens)”, for which the “aPLA binding to peptide- or domain-coated well” value (“aPLA binding” for short) in test [1] is “significantly decreased the binding of aPLA”.
“p3: 20-mer overlapping peptide of β2GP1 domain I-II, SEQ ID NO:39 (RTCPKPDDLPFSTVVPLKTF; listed as Homo sapiens)”: in test [1], the “aPLA binding” value is “bound to p3 with a similar efficiency compared to p1”.
Turning to “p10: 20-mer overlapping peptide of β2GP1 domain I-II, SEQ ID NO:44 (ENGAVRYTTFEYPNTISFSC; listed as Homo sapiens)”, the “Inhibition of TNF production induced by aPLA” value (from here on “Inhibition”) in test [2] is on record as “had no effect”.
In the case of “R58A: alanine scanning mutant of p6 (CKPGYVSAGGMRKFICPLTG; listed as Homo sapiens)”, the “aPLA binding” value in test [1] is listed as “involved in the binding of aPLA”.
As for “p11: 20-mer overlapping peptide of β2GP1 domain I-II, SEQ ID NO:45 (EYPNTISFSCNTGFYLNGAD; listed as Homo sapiens)”, in test [2], the “Inhibition” value was “had no effect”.
For “F9A: alanine scanning mutant of p1 (MISPVLILASSFLCHVAIAG; listed as Homo sapiens)”, the “aPLA binding” value in test [1] is recorded as “significantly decreased the binding of aPLA”.
For “M61A: alanine scanning mutant of p6 (CKPGYVSRGGARKFICPLTG; listed as Homo sapiens)”, in test [1], the “aPLA binding” value is recorded as “involved in the binding of aPLA”.
With “F64A: alanine scanning mutant of p6 (CKPGYVSRGGMRKAICPLTG; listed as Homo sapiens)”, the “aPLA binding” value in test [1] is given as “involved in the binding of aPLA”.
As to “S11A: alanine scanning mutant of p1 (MISPVLILFSAFLCHVAIAG; listed as Homo sapiens)”, in test [1], the “aPLA binding” value is listed as “significantly decreased the binding of aPLA”.
As for “C66A: alanine scanning mutant of p6 (CKPGYVSRGGMRKFIAPLTG; listed as Homo sapiens)”, in test [1], the “aPLA binding” value is “involved in the binding of aPLA”.
The same measure, in the same setting: next, “C14A: alanine scanning mutant of p1 (MISPVLILFSSFLAHVAIAG; listed as Homo sapiens)”: “significantly decreased the binding of aPLA”; “R62A: alanine scanning mutant of p6 (CKPGYVSRGGMAKFICPLTG; listed as Homo sapiens)”: “involved in the binding of aPLA”; “I7A: alanine scanning mutant of p1 (MISPVLALFSSFLCHVAIAG; listed as Homo sapiens)”: “significantly decreased the binding of aPLA”.
For the molecule “p6: 20-mer peptide of β2GP1 domain I-II containing epitope R39-R43, SEQ ID NO:33 (CKPGYVSRGGMRKFICPLTG; listed as Homo sapiens)”, the “Inhibition” value in test [2] is reported as “diminished the production of TNF induced by aPLA”. Besides, the “aPLA binding” value in test [1] was “interacted similarly with both peptides; also recorded: interact with aPLA”.
“L8A: alanine scanning mutant of p1 (MISPVLIAFSSFLCHVAIAG; listed as Homo sapiens)”: the “aPLA binding” value in test [1] is “significantly decreased the binding of aPLA”.
Same read-out and setting: next, “G59A: alanine scanning mutant of p6 (CKPGYVSRAGMRKFICPLTG; listed as Homo sapiens)”: “involved in the binding of aPLA”.
Turning to MISPVLILFSSFLCHVAIAG [p1], the “Inhibition” value in test [2] is recorded as “diminished the production of TNF induced by aPLA”. In addition, the “aPLA binding” value in test [1] was “able to bind p1 (SEQ ID NO:32) as potently as p6; also recorded: interact with aPLA”. Moreover, the “CD4+ T cell proliferative response (CD4+CFSElow)” value in test [3] is reported as “significantly increased; also recorded: induced the proliferation of CD4^+ T cells”; in test [3] (listed as peptide 1), “carries antigenic determinant for CD4^+ T cell proliferation”.
Regarding “G60A: alanine scanning mutant of p6 (CKPGYVSRGAMRKFICPLTG; listed as Homo sapiens)”, the “aPLA binding” value in test [1] is reported as “involved in the binding of aPLA”.

B1: reduced β2GP1: reduced β2GP1 exposing the cryptic epitope (protein)
chain: GRTCPKPDDLPFSTVVPLKTFYEPGEEITYSCKPGYVSRGGMRKFICPLTGLWPINTLKCTPRVCPFAGILENGAVRYTTFEYPNTISFSCNTGFYLNGADSAKCTEEGKWSPELPVCAPIICPPPSIPTFATLRVYKPSAGNNSLYRDTAVFECLPQHAMFGNDTITCTTHGNWTKLPECREVKCPFPSRPDNGFVNYPAKPTLYYKDKATFGCHDGYSLDGPEEIECTKLGNWSAMPSCKASCKVPVKKATVVYQGERVKIQEKFKNGMLHGDKVSFFCKNKEKKCSYTEDAQCIDGTIEVPKCFKEHSSLAFWKTDASDVKPC
In the case of B1, the “Inhibition” value in test [2] is recorded as “no effect on aPLA activity”. Also, in test [1], the “aPLA binding” value is reported as “binding of aPLA”. Moreover, the “CD4+ T cell proliferative response (CD4+CFSElow)” value in test [3] is recorded as “induce proliferation of T cells; also recorded: proliferative responses were detected”.

B2: β-2-Glycoprotein 1 (protein)
chain: B1 chain
notes: native β2GP1 purified from Human Plasma (Prospecbio)
As to B2, the “Inhibition” value in test [2] is “no effect on aPLA activity”. The “aPLA binding” value in test [1] is on record as “binding of aPLA”. Further, the “CD4+ T cell proliferative response (CD4+CFSElow)” value in test [3] was “unable to significantly stimulate T cell proliferation”.

B3: domain III-IV: recombinant fusion protein of β2GP1 domains III-IV (protein)
chain: PIICPPPSIPTFATLRVYKPSAGNNSLYRDTAVFECLPQHAMFGNDTITCTTHGNWTKLPECREVKCPFPSRPDNGFVNYPAKPTLYYKDKATFGCHDGYSLDGPEEIECTKLGNWSAMPSCKA
modifications: left off: small tags and cut ends
Consider B3, for which the “Inhibition” value in test [2] is given as “significantly decreased the production of TNF induced by aPLA”. In addition, the figures for the “aPLA binding” value in test [1] and in test [1] (listed as domain III) were “efficiently interacted with aPLA” and “binding of aPLA”, respectively.

B4: domain V: recombinant fusion protein of β2GP1 domain V (protein)
chain: SCKVPVKKATVVYQGERVKIQEKFKNGMLHGDKVSFFCKNKEKKCSYTEDAQCIDGTIEVPKCFKEHSSLAFWKTDASDVKPC
modifications: left off: small tags and cut ends
For the molecule B4, the “Inhibition” value in test [2] is on record as “significantly decreased the production of TNF induced by aPLA”.

B5: domain I-II: recombinant fusion protein of β2GP1 sushi domain I and II, SEQ ID NO:37 (protein, listed as Homo sapiens)
chain: MISPVLILFSSFLCHVAIAGRTCPKPDDLPFSTVVPLKTFYEPGEEITYSCKPGYVSRGGMRKFICPLTGLWPINTLKCTPRVCPFAGILENGAVRYTTFEYPNTISFSCNTGFYLNGADSAKCTEEGKWSPELPVCA
With B5, the “Inhibition” value in test [2] is reported as “significantly decreased the production of TNF induced by aPLA”. Further, in test [1], the “aPLA binding” value was “binding of aPLA”. In addition, the results for the “CD4+ T cell proliferative response (CD4+CFSElow)” value in test [3] and in test [3] (listed as β2GP1-domain I-II) were “induce proliferation of T cells” and “proliferative responses were detected”, respectively.
